In ChEMBL document CHEMBL6115010, “Targeting glioma with heteroaromatic alkaloids: A review of potential therapeutics” (Bioorg Med Chem, 2025):
Values after ≈ are worked out from the molar mass of the structure shown.

How the values were obtained:
T98G [1] = assay: Cytotoxicity activity against human T98G cells assessed as reduction in cell growth measured for 48 hrs by MTS reagent based assay; assay type: functional
U-87 MG [2] = assay: Antiproliferative activity against human U-87-MG cells; assay type: functional, cell-based, U-87MG ATCC
U-87 MG [3] = assay: Cytotoxicity against human U-87 MG cells assessed as reduction in cell growth incubated for 48 hrs by MTT assay; assay type: functional, cell-based, U-87MG ATCC
U-251 [4] = assay: Antiproliferative activity against human U-251MG cells assessed as reduction in cell viability incubated for 72 hrs by SRB assay; assay type: functional, cell-based; details: U-251, 72 h
T98G [5] = assay: Inhibition of colony formation in human T98G cells assessed as reduction in number of cell clone measured after 14 days by crystal violet staining based microscopic analysis; assay type: functional; details: 336 h
U-118-MG [6] = assay: Antiproliferative activity against human U-118-MG cells assessed as reduction in cell viability incubated for 72 hrs by MTT assay; assay type: functional, cell-based
T98G [7] = assay: Anticancer activity against human T98G cells assessed as reduction in cell viability; assay type: functional, cell-based
U-251 [8] = assay: Antiproliferative activity against human U-251MG cells assessed as reduction in cell viability incubated for 72 hrs by MTT assay; assay type: functional, cell-based; details: U-251, 72 h
T98G [9] = assay: Antiproliferative activity against human T98G cells assessed as reduction in cell viability incubated for 72 hrs by WST-8 reagent based assay; assay type: functional
U-87 MG [10] = assay: Antiproliferative activity against human U-87 MG cells assessed as reduction in cell viability incubated for 72 hrs by MTT assay; assay type: functional, cell-based, U-87MG ATCC
[11] = Inhibition of colony formation in human U-251MG cells assessed as reduction in number of cell clone measured after 14 days by crystal violet staining based microscopic analysis; assay type: functional; details: 336 h
[12] = Cytotoxicity against HEK293T cells assessed as reduction in cell viability incubated for 72 hrs by MTS assay; assay type: toxicity, cell-based, HEK-293T; details: human
U-87 MG [13] = assay: Antiproliferative activity against human U-87 MG cells assessed as reduction in cell viability incubated for 72 hrs by WST-8 reagent based assay; assay type: functional, U-87MG ATCC
SF-295 [14] = assay: Cytotoxicity against human SF-295 cells assessed as reduction in cell growth incubated for 96 hrs by MTT assay; assay type: functional, cell-based; details: SF-295, 96 h
SF-295 [15] = assay: Cytotoxicity against human SF-295 cells; assay type: functional, cell-based
U-87 MG [16] = assay: Cytotoxicity against human U-87 MG cells assessed as reduction in cell viability incubated for 72 hrs by neutral red uptake assay; assay type: functional, cell-based, U-87MG ATCC
U-87 MG [17] = assay: Cytotoxicity against human U-87 MG cells assessed as reduction in cell viability in presence of Jerantinine B incubated for 72 hrs by neutral red uptake assay; assay type: functional, cell-based, U-87MG ATCC
SF-268 = assay: Cytotoxicity against human SF-268 cells assessed as reduction in cell viability incubated for 72 hrs by MTT assay; assay type: functional, cell-based; details: SF-268, 72 h
C6 = assay: Antiproliferative activity against rat C6 cells assessed as reduction in cell viability incubated foe 24 hrs by MTT assay; assay type: functional, cell-based; details: C6, 24 h
U-87 MG [18] = assay: Antiproliferative activity against human U-87 MG cells assessed as reduction in cell viability incubated for 48 hrs by CCK-8 assay; assay type: functional, cell-based, U-87MG ATCC
LN-18 = assay: Antiproliferative activity against human LN-18 cells assessed as reduction in cell viability incubated for 48 hrs by CCK-8 assay; assay type: functional, cell-based; details: LN-18, 48 h
U-251 [19] = assay: Antiproliferative activity against human U-251MG cells assessed as reduction in cell viability at 50 uM incubated for 48 hrs by CCK-8 assay relative to control; assay type: functional
U-87 MG [20] = assay: Antiproliferative activity against human U-87 MG cells assessed as reduction in cell viability at 50 uM incubated for 48 hrs by CCK-8 assay relative to control; assay type: functional, U-87MG ATCC
U-87 MG [21] = assay: Antiproliferative activity against human U-87 MG cells assessed as reduction in cell viability incubated foe 24 hrs by MTT assay; assay type: functional, cell-based, U-87MG ATCC
U-87 MG [22] = assay: Cytotoxicity against human U-87 MG cells by resazurin dye based assay; assay type: functional, cell-based, U-87MG ATCC
U-251 [23] = assay: Cytotoxicity against human U-251MG cells assessed as reduction in cell growth; assay type: functional, cell-based
[24] = Cytotoxicity against human U87MG.deltaEGFR cells by resazurin dye based assay; assay type: functional, cell-based
U-87 MG [25] = assay: Antiproliferative activity against human U-87 MG cells assessed as reduction in cell growth measured for 24 hrs by MTT assay; assay type: functional, cell-based, U-87MG ATCC
U-118-MG [26] = assay: Antiproliferative activity against human U-118-MG cells assessed as inhibition of cell proliferation incubated for 72 hrs by CCK8 assay; assay type: functional, cell-based
T98G [27] = assay: Antiproliferative activity against human T98G cells assessed as reduction in cell viability incubated for 96 hrs by MTT assay; assay type: functional, cell-based
T98G [28] = assay: Induction of apoptosis in human T98G cells at 10 ug/ml relative to control; assay type: functional; details: dose 10 µg/ml

C=CC(C)(C)[C@@]12C[C@H]3C(=O)N[C@@H](Cc4ccccc4)C(=O)N3[C@@H]1N(C(C)=O)c1ccccc12
IC50 (T98G [1]): 20 µg/mL (≈ 45.1 µM)

COc1cc2c(cc1OC)-c1c3c(cc4c1[C@H](C2)N(C)CC4)OCO3 [DICENTRINE]
IC50 (U-87 MG [2]): 4.73 µM

Oc1cc2cccc(O)c2cn1
IC50 (U-87 MG [3]): 3.46 µM

CC1=N[C@H](C(=O)O)CC2c3[nH]ccc3NC12 (some centres undefined)
IC50 (U-251 [4]): 36.3 µM

Cn1nnc2c(C(N)=O)ncn2c1=O [TEMOZOLOMIDE]
EC50 (T98G [5]): 430 µM | IC50 (U-118-MG [6]): > 320 µM | EC50 (T98G [7]): 150 µM | IC50 (U-251 [8]): > 320 µM | EC50 (T98G [9]): 390 µM | IC50 (U-87 MG [10]): 135 µM | EC50 [11]: 23 µM | IC50 at 72 h [12]: > 50 µg/mL | EC50 (U-87 MG [13]): 42 µM

O=C1c2ccc(Br)cc2-[n+]2ccc3c([nH]c4ccccc43)c21
IC50 (SF-295 [14]): 5.6 µM | IC50 (SF-295 [15]): 3.9 µM

CC1=NC(C(=O)O)Cc2c1[nH]c1cc([C@H](c3c[nH]c4ccccc34)[C@@H](O)CO)[nH]c21 (some centres undefined)
IC50 (U-251 [4]): 26.1 µM

C=CC(C)(C)n1cc(Cc2cn(C(C)(C)C=C)c3ccccc23)c2ccccc21
IC50 (T98G [1]): 18 µg/mL (≈ 47.1 µM)

CC(C)=CCC/C(C)=C/CC/C(C)=C/CC[C@]1(C)CCc2cc(O)cc(C)c2O1 [DELTA-TOCOTRIENOL]
IC50 (U-87 MG [16]): 3.12 µg/mL (≈ 7.87 µM) | IC50 (U-87 MG [17]): 1.83 µg/mL

CC[C@H](/C=C(C)/C=C/C(=O)c1c(O)c(-c2ccc(O)cc2)c[nH]c1=O)CO
IC50 (SF-268): 31.1 µM

COc1cc2c[n+](C)c3c4cc5c(cc4ccc3c2cc1OC)OCO5.[Cl-] [NITIDINE CHLORIDE]
IC50 (C6): 8 µM | IC50 (U-87 MG [18]): 5 µM | IC50 (LN-18): 5 µM | Activity (U-251 [19]): ~50% | Activity (U-87 MG [20]): ~50% | IC50 (U-87 MG [21]): 10 µM

COc1cccc2c1C(=O)c1c(O)c3c(c(O)c1C2=O)C[C@@](O)(C(=O)CO)C[C@@H]3O[C@H]1C[C@H](N)[C@H](O)[C@H](C)O1 [DOXORUBICIN]
IC50 (U-87 MG [22]): 1.06 µM | IC50 (U-251 [23]): 0.237 µM | IC50 (SF-268): 0.7 µM | IC50 [24]: 6.11 µM

COc1ccc2cc1Oc1ccc(cc1)C[C@H]1c3cc(c(OC)cc3CCN1C)Oc1c(O)c(OC)cc3c1[C@H](C2)N(C)CC3 [FANGCHINOLINE]
IC50 (U-87 MG [25]): 39.3 µM | IC50 (U-118-MG [26]): 44.2 µM

COc1ccc2c(c1O)-c1c(O)c(OC)cc3c1[C@H](C2)[N+](C)(C)CC3 [MAGNOFLORINE]
IC50 (T98G [27]): 112 µg/mL | Activity (T98G [28]): 24.02%
